These results are taken from PubChem BioAssay (NCI).

Among the test systems are IGROV1 ovarian; HL-60(TB) leukemia; UACC-257 melanoma; SN12C renal; HT29 colon; LOX IMVI melanoma; U251 CNS; NCI-H226 lung; SF-268 CNS; SF-539 CNS; MALME-3M melanoma.
Holding throughout (experiment): NCI anticancer screen, dose series, 48 h

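Five concentrations, 48 hours, 96-well plates. Here, GI50 denotes the concentration required for 50% inhibition of growth. TGI: concentration producing complete growth inhibition.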

As for `Cc1cn(C2CCC(CO)(CF)O2)c(=O)[nH]c1=O` (stereo not given), the TGI in the experiment with IGROV1 ovarian, in the experiment with HL-60(TB) leukemia, in the experiment with UACC-257 melanoma, in the experiment on SN12C renal, in the experiment with HT29 colon and with LOX IMVI melanoma was over 100 µM throughout. The TGI in the experiment on U251 CNS, with NCI-H226 lung, with SF-268 CNS and in the experiment on SF-539 CNS was over 100 µM each time.
For `NS(=O)(=O)c1nc(S(=O)(=O)O)c2[nH]cnc2n1`, the TGI with IGROV1 ovarian, with UACC-257 melanoma, in the experiment with SN12C renal, with HT29 colon, with LOX IMVI melanoma and with U251 CNS was over 100 µM in each case. Also, the TGI in the experiment on NCI-H226 lung, with SF-268 CNS, with SF-539 CNS and with MALME-3M melanoma was over 100 µM each time.
Take `C/C=C(\C)C(=O)OC1CC(OC(C)=O)C2(C(=O)OC)COC3C2C1(C)C1C2(C(=O)OC)OCC1(C3O)C1(O)C3CC(C4(O)C=COC4O3)C1(C)O2` (stereo not given): the TGI in the experiment on IGROV1 ovarian, in the experiment with HL-60(TB) leukemia, in the experiment with UACC-257 melanoma, with SN12C renal, with HT29 colon and with LOX IMVI melanoma was over 100 µM throughout. The TGI in the experiment with U251 CNS, in the experiment on NCI-H226 lung, with SF-268 CNS and with SF-539 CNS was over 100 µM each time.
As to `N#C/C(=C/C=C/c1ccco1)C(N)=O`, the TGI with IGROV1 ovarian, in the experiment on SN12C renal, with HT29 colon, in the experiment on LOX IMVI melanoma, in the experiment with U251 CNS and in the experiment on NCI-H226 lung was over 10 µM in each case. The TGI in the experiment with SF-268 CNS, with SF-539 CNS and with MALME-3M melanoma was over 10 µM throughout.
For `CCc1cccc2c3c([nH]c12)-c1ccccc1NC(=O)C3`, the TGI with IGROV1 ovarian, in the experiment with HL-60(TB) leukemia, in the experiment with UACC-257 melanoma, in the experiment on SN12C renal, with HT29 colon and with LOX IMVI melanoma was over 100 µM each time. For the same molecule, the TGI with U251 CNS, in the experiment on NCI-H226 lung and in the experiment on SF-268 CNS was over 100 µM in each case.
Regarding `COc1cccc(N=N/C(=N/NC(=O)c2ccc(C)cc2)c2ccc(N(CCC#N)CCC#N)cc2OC)c1`, the TGI in the experiment with IGROV1 ovarian is over 100 µM; in the experiment with UACC-257 melanoma, over 100 µM; in the experiment on SN12C renal it was over 100 µM; in the experiment on HT29 colon it was 35.5 µM; with LOX IMVI melanoma, over 100 µM; with U251 CNS it was over 100 µM. Moreover, the TGI in the experiment on NCI-H226 lung, in the experiment with SF-268 CNS and in the experiment on MALME-3M melanoma was over 100 µM in each case.
Turning to `O=c1c2cc(C(F)(F)F)ccc2sc2c(NCCCNCCO)nc3ccccc3c12`, the GI50 in the experiment with IGROV1 ovarian is 1.23 µM; with SN12C renal it was 1.64 µM; in the experiment with LOX IMVI melanoma, 1.35 µM; with SF-539 CNS, 1.6 µM; in the experiment on MALME-3M melanoma, 1.59 µM. Further, the TGI turned out to be 2.62 µM in the experiment on IGROV1 ovarian; 3.12 µM in the experiment on SN12C renal; 2.7 µM in the experiment on LOX IMVI melanoma; 3.03 µM in the experiment on SF-539 CNS; 3.09 µM in the experiment with MALME-3M melanoma.
Turning to `O=P1(N2CCOCC2)OCCO1`, the TGI with IGROV1 ovarian, with HL-60(TB) leukemia, with UACC-257 melanoma, with SN12C renal, in the experiment with HT29 colon and in the experiment with LOX IMVI melanoma was over 100 µM throughout. In addition, the TGI in the experiment on U251 CNS, in the experiment on SF-268 CNS and in the experiment with MALME-3M melanoma was over 100 µM each time.
In the case of `Fc1cccc(F)c1C1SCc2nc3cc(Cl)c(Cl)cc3n21` (stereo not given), the TGI with IGROV1 ovarian, in the experiment on HL-60(TB) leukemia, in the experiment with UACC-257 melanoma, in the experiment on SN12C renal, in the experiment on HT29 colon and in the experiment on LOX IMVI melanoma was over 100 µM in each case. Also, the TGI in the experiment with U251 CNS, in the experiment with SF-268 CNS, in the experiment with SF-539 CNS and in the experiment with MALME-3M melanoma was over 100 µM throughout.
For the molecule `C[C@@H]1[C@@H](C)C(c2ccccc2)O[Si]1(C(C)(C)C)C(C)(C)C` (stereo not given in full), the TGI with IGROV1 ovarian was 31 µM; in the experiment on UACC-257 melanoma, 37.5 µM; in the experiment with SN12C renal, 31.3 µM; with HT29 colon it was 31 µM; with LOX IMVI melanoma it was 30.9 µM; in the experiment with U251 CNS, 30.7 µM. For the same molecule, the TGI was 40.9 µM in the experiment with NCI-H226 lung, 61.2 µM in the experiment with SF-268 CNS, 30.7 µM in the experiment on SF-539 CNS and 37 µM with MALME-3M melanoma.
`N#Cc1nc2cc(Cl)ccc2nc1N1CCN(c2ccc([N+](=O)[O-])cc2)CC1`: the TGI in the experiment with UACC-257 melanoma, in the experiment on SN12C renal, with HT29 colon, in the experiment with U251 CNS, with SF-268 CNS and with SF-539 CNS was over 100 µM throughout.
As to `CN(Cc1cnc2nc(N)nc(N)c2n1)c1ccc(C(=O)NC23CC4CC(CC(C4)C2)C3)cc1`, the TGI in the experiment with IGROV1 ovarian was 21.8 µM; in the experiment with HL-60(TB) leukemia, over 100 µM; in the experiment with UACC-257 melanoma, 25.6 µM; with SN12C renal, 56.8 µM; with LOX IMVI melanoma, 53 µM; in the experiment on U251 CNS, 44.3 µM. Moreover, the TGI with NCI-H226 lung turned out to be 27.3 µM; in the experiment with SF-268 CNS, 22.7 µM; with MALME-3M melanoma it was 26.3 µM.
Take `Clc1sc(Cl)c2c1[C@@H](Cl)C[C@@H]2Cl`: the TGI in the experiment on IGROV1 ovarian, in the experiment with UACC-257 melanoma, in the experiment on SN12C renal, in the experiment with HT29 colon, with LOX IMVI melanoma and in the experiment on U251 CNS was over 100 µM each time. Moreover, the TGI with NCI-H226 lung, with SF-268 CNS, in the experiment with SF-539 CNS and in the experiment on MALME-3M melanoma was over 100 µM each time.
For the molecule `CNc1nnc(CCCCCCCCc2nnc(NC)o2)o1`, the TGI was over 100 µM in the experiment with IGROV1 ovarian; over 100 µM in the experiment on HL-60(TB) leukemia; over 100 µM in the experiment on UACC-257 melanoma; over 100 µM in the experiment on SN12C renal; 90.8 µM in the experiment on HT29 colon; 38.5 µM with LOX IMVI melanoma. Besides, the figures for the TGI with U251 CNS, in the experiment on NCI-H226 lung and in the experiment on SF-539 CNS were 63.7 µM, over 100 µM and over 100 µM, respectively.
